{"source": "patent US20060247223A1", "about": "“Non-imidazole alkylamines as histamine H3- receptor ligands and their therapeutic applications” (priority 1998, published 2006)", "note": "Structures can show the parent of a compound that is named as a salt."}
{"units": {"melting point": "°C"}}
{"smiles": "CCN(CC)CCCOc1ccc(C#N)cc1", "note": "(as salt: oxalate) [Example 43, N-[3-(4-cyanophenoxy)-propyl]-diethylamine]", "melting point": "148 to 150"}
{"smiles": "O=C(c1ccccc1)c1ccc(OCCCCCN2CCCC2)cc1", "note": "(as salt: oxalate) [Example 44, 1-[5-(4-benzoylphenoxy)-pentyl]-pyrrolidine]", "melting point": "141 to 142"}
{"smiles": "O=C(Cc1ccccc1)c1ccc(OCCCCCN2CCCC2)cc1", "note": "(as salt: oxalate) [Example 45, 1-{5-[4-(phenylacetyl)-phenoxy]-pentyl}pyrrolidine]", "melting point": "177 to 178"}
{"smiles": "CCN(CC)CCCOc1ccc(C(C)=O)cc1", "note": "(as salt: oxalate) [Example 46, N-[3-(4-acetylphenoxy)-propyl]-diethylamine]", "melting point": "108 to 110"}
{"smiles": "c1ccc(Oc2ccc(OCCCCCN3CCCC3)cc2)cc1", "note": "(as salt: oxalate) [Example 48, 1-[5-(4-phenoxyphenoxy)-pentyl]-pyrrolidine]", "melting point": "135 to 136"}
{"smiles": "O=C(Nc1ccc(OCCCCCN2CCCC2)cc1)c1ccccc1", "note": "(as salt: oxalate) [Example 49, 1-[5-(4-N-benzamidophenoxy)-pentyl]-pyrrolidine]", "melting point": "176 to 178"}
{"smiles": "CC(O)c1ccc(OCCCCCN2CCCC2)cc1", "note": "(centres unmarked) (as salt: oxalate) [Example 50, 1-{5-[4-(1-hydroxyethyl)-phenoxy]-pentyl}-pyrrolidine]", "melting point": "102 to 104"}
{"smiles": "CCN(CC)CCCCCOc1ccc(C#N)cc1", "note": "(as salt: oxalate) [Example 51, 1-[5-(4-cyanophenoxy)-pentyl]-diethylamine]", "melting point": "120 to 122"}
{"smiles": "N#Cc1ccc(OCCCCCN2CCCCC2)cc1", "note": "(as salt: oxalate) [Example 52, 1-[5-(4-cyanophenoxy)-pentyl]-piperidine]", "melting point": "115 to 116"}
{"smiles": "CN(C)CCCCCOc1ccc(C#N)cc1", "note": "(as salt: oxalate) [Example 53, N-[5-(4-cyanophenoxy)-pentyl]-dimethylamine]", "melting point": "148 to 149"}
{"smiles": "CN(C)CCCOc1ccc(C#N)cc1", "note": "(as salt: oxalate) [Example 55, N-[3-(4-cyanophenoxy)-propyl]-dimethylamine]", "melting point": "166 to 167"}
{"smiles": "CCN(CC)CCCCOc1ccc(C#N)cc1", "note": "(as salt: oxalate) [Example 56, N-[4-(4-cyanophenoxy)-butyl]-diethylamine]", "melting point": "143 to 145"}
{"smiles": "N#Cc1ccc(OCCCN2CCCC2)cc1", "note": "(as salt: oxalate) [Example 58, 1-[3-(4-cyanophenoxy)-propyl]-pyrrolidine]", "melting point": "163 to 165"}
{"smiles": "N#Cc1ccc(OCCCN2CCCCC2)cc1", "note": "(as salt: oxalate) [Example 59, 1-[3-(4-cyanophenoxy)propyl]piperidine]", "melting point": "151 to 153"}
{"smiles": "N#Cc1ccc(OCCCN2CCCCCC2)cc1", "note": "(as salt: oxalate) [Example 60, N-[3-(4-cyanophenoxy)-propyl]-hexamethyleneimine]", "melting point": "124 to 125"}
{"smiles": "CCN(CC)CCCCCCOc1ccc(C#N)cc1", "note": "(as salt: oxalate) [Example 61, N-[6-(4-cyanophenoxy)-hexyl]-diethylamine]", "melting point": "110 to 112"}
{"smiles": "CCCN(CCC)CCCOc1ccc(C#N)cc1", "note": "(as salt: oxalate) [Example 62, N-[3-(4-cyanophenoxy)-propyl]-dipropylamine]", "melting point": "127 to 128"}
{"smiles": "CCN(CC)CCCOc1ccc(/C(C)=N/O)cc1", "note": "(as salt: oxalate) [Example 64, 4-(3-diethylaminopropoxy)-acetophenone-oxime]", "melting point": "99 to 100"}
{"smiles": "CC(=O)c1ccc(OCCCN2CCCCC2)cc1", "note": "(as salt: oxalate) [Example 65, 1-[3-(4-acetylphenoxy)-propyl]-piperidine]", "melting point": "159 to 160"}
{"smiles": "CC(=O)c1ccc(OCCCN2CCCC(C)C2)cc1", "note": "(centres unmarked) (as salt: oxalate) [Example 66, 1-[3-(4-acetylphenoxy)-propyl]-3-methyl-piperidine]", "melting point": "143 to 144"}
{"smiles": "CC(=O)c1ccc(OCCCN2CCC(C)CC2)cc1", "note": "(as salt: oxalate) [Example 68, 1-[3-(4-acetylphenoxy)-propyl]-4-methyl-piperidine]", "melting point": "160 to 161"}
{"smiles": "CC(=O)c1ccc(OCCCN2C[C@H](C)C[C@H](C)C2)cc1", "note": "(as salt: oxalate) [Example 70, 1-[3-(4-acetylphenoxy)-propyl]-3,5-cis-dimethyl-piperidine]", "melting point": "174 to 175"}
{"smiles": "O=Cc1ccc(OCCCN2CCCCC2)cc1", "note": "(as salt: oxalate) [Example 71, 1-[3-(4-formylphenoxy)-propyl]-piperidine]", "melting point": "152 to 153"}
{"smiles": "CC(C)C(=O)c1ccc(OCCCN2CCCCC2)cc1", "note": "(as salt: oxalate) [Example 72, 1-[3-(4-isobutyrylphenoxy)-propyl]-piperidine]", "melting point": "121 to 122"}
{"smiles": "CCCC(=O)c1ccc(OCCCN2CCCCC2)cc1", "note": "(as salt: oxalate) [Example 74, 1-[3-(4-buyrylphenoxy)propyl]piperidine]", "melting point": "138 to 139"}
{"smiles": "CC(=O)c1ccc(OCCCN2CC=CCC2)cc1", "note": "(as salt: oxalate) [Example 75, 1-[3-(4-acetylphenoxy)-propyl]-1,2,3,6-tetrahydropyridine]", "melting point": "143 to 144"}
{"smiles": "CC(=O)c1ccc(OC[C@H](C)CN2CCCCC2)cc1", "note": "(as salt: oxalate) [Example 77, 1-[3-(4-acetylphenoxy)-2-R-methylpropyl]piperidine]", "melting point": "149 to 151"}
{"smiles": "CC(=O)c1ccc(OCC(C)CN2CCCCC2)cc1", "note": "(centres unmarked) (as salt: oxalate) [Example 80, 1-[3-(4-acetylphenoxy)-2-S-methylpropyl]piperidine]", "melting point": "148 to 150"}
{"smiles": "CC1CCCN(CCCOc2ccc([N+](=O)[O-])cc2)C1", "note": "(centres unmarked) (as salt: oxalate) [Example 83, 1-[3-(4-nitrophenoxy)propyl]-3-methylpiperidine]", "melting point": "172 to 174"}
{"smiles": "CC1CCCCN1CCCOc1ccc([N+](=O)[O-])cc1", "note": "(centres unmarked) (as salt: oxalate) [Example 85, 1-[3-(4-nitrophenoxy)propyl]-2-methylpiperidine]", "melting point": "151 to 153"}
{"smiles": "CC1CCN(CCCOc2ccc([N+](=O)[O-])cc2)CC1", "note": "(as salt: oxalate) [Example 86, 1-[3-(4-nitrophenoxy)propyl]4-methylpiperidine]", "melting point": "119 to 121"}
{"smiles": "CCC(=O)c1ccc(OCCCN2CCCC(C)C2)cc1", "note": "(centres unmarked) (as salt: oxalate) [Example 88, 1-[3-(4-propionylphenoxy)propyl]-3-methylpiperidine]", "melting point": "135 to 136"}
{"smiles": "O=C(c1ccc(OCCCN2CCCCC2)cc1)C1CCC1", "note": "(as salt: oxalate) [Example 89, 1-[3-(4-cyclobutylcarbonylphenoxy)propyl]piperidine]", "melting point": "80 to 82"}
{"smiles": "O=C(c1ccc(OCCCN2CCCCC2)cc1)C1CCCC1", "note": "(as salt: oxalate) [Example 90, 1-[3-(4-cyclopentylcarbonylphenoxy)propyl]piperidine]", "melting point": "143 to 145"}
{"smiles": "C[C@@H]1C[C@H](C)CN(CCCOc2ccc(C#N)cc2)C1", "note": "(as salt: oxalate) [Example 93, 1-[3-(4-cyanophenoxy)propyl]-cis-3,5-dimethylpiperidine]", "melting point": "161 to 163"}
{"smiles": "CCC(=O)c1ccc(OCCCN2CCC(C)CC2)cc1", "note": "(as salt: oxalate) [Example 94, 1-[3-(4-propionylphenoxy)propyl]-4-methylpiperidine]", "melting point": "163 to 165"}
{"smiles": "CCC(=O)c1ccc(OCCCN2CCCCC2C)cc1", "note": "(centres unmarked) (as salt: oxalate) [Example 95, 1-[3-(4-propionylphenoxy)propyl]-2-methylpiperidine]", "melting point": "92 to 94"}
{"smiles": "CCC(O)c1ccc(OCCCN2CCC(C)CC2)cc1", "note": "(centres unmarked) (as salt: oxalate) [Example 97, 1-{3-[4-(1-hydroxypropyl)phenoxy]propyl}-4-methylpiperidine]", "melting point": "182 to 183"}
{"smiles": "CCC(=NOC)c1ccc(OCCCN2CCC(C)CC2)cc1", "note": "(as salt: oxalate) [Example 99, 1-[3-(4-propionylphenoxy)propyl]-4-methylpiperidine methoxime]", "melting point": "179 to 181"}
{"smiles": "C[C@@H]1C[C@H](C)CN(CCCOc2ccc(C(=O)C3CC3)cc2)C1", "note": "(as salt: oxalate) [Example 102, 1-[3-(4-cyclopropylcarbonylphenoxy)propyl]-cis-3,5-dimethylpiperidine]", "melting point": "130 to 132"}
{"smiles": "COC(=O)c1ccc(OCCCN2CCCCC2)cc1", "note": "(as salt: oxalate) [Example 103, 1-[3-(4-carbomethoxyphenoxy)propyl]piperidine]", "melting point": "156 to 158"}
{"smiles": "CCC(=NO)c1ccc(OCCCN2CCC(C)CC2)cc1", "note": "(as salt: oxalate) [Example 107]", "melting point": "157 to 160"}
{"smiles": "Brc1ccc(OCCCN2CCCCC2)cc1", "note": "(as salt: oxalate) [Example 108, 1-[3-(4-bromophenoxy)propyl]piperidine]", "melting point": "175 to 177"}
{"smiles": "O=[N+]([O-])c1ccc(OCCCN2CCCCC2)cc1", "note": "(as salt: oxalate) [Example 109, 1-[3-(4-nitrophenoxy)propyl]piperidine]", "melting point": "148 to 151"}
{"smiles": "CN(C)S(=O)(=O)c1ccc(OCCCN2CCCCC2)cc1", "note": "(as salt: oxalate) [Example 110, 1-[3-(4-N,N-dimethylsulfonamidophenoxy)propyl]piperidine]", "melting point": "149 to 153"}
{"smiles": "CC(C)c1ccc(OCCCN2CCCCC2)cc1", "note": "(as salt: oxalate) [Example 111]", "melting point": "131 to 134"}
{"smiles": "CCC(C)c1ccc(OCCCN2CCCCC2)cc1", "note": "(centres unmarked) (as salt: oxalate) [Example 112, 1-[3-(4-sec-butylphenoxy)propyl]pipenidine]", "melting point": "133 to 136"}
{"smiles": "CCCc1ccc(OCCCN2CCCCC2)cc1", "note": "(as salt: oxalate) [Example 113, 1-[3-(4-propylphenoxy)propyl]piperidine]", "melting point": "121 to 124"}
{"smiles": "CCc1ccc(OCCCN2CCCCC2)cc1", "note": "(as salt: oxalate) [Example 114, 1-[3-(4-ethylphenoxy)propyl]piperidine]", "melting point": "148 to 151"}
{"smiles": "CC[C@@H]1CC[C@H](C)N(CCCOc2ccc(C#N)cc2)C1", "note": "(relative stereo) (as salt: oxalate) [Example 91, 1-[3-(4-cyanophenoxy)propyl]-cis-2-methyl-5-ethylpiperidine]", "melting point": "158 to 159"}
